Values joined by “and” are separate entries in the source; they are usually repeats but may differ in a detail not shown here. Equal entries are not always repeated.
Test system: NCI-H211 tumor spheroids, viability percent test/control
Test: Anticancer human tumor NCI-H211 cell line growth inhibition;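 also: spheroids exposed to agents for seven days before readout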
Conditions: spheroids with HUVEC and MSC; for viability, T/C: stronger effect = lower value
How it was run: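 Complex spheroids of malignant cells with endothelial cells and mesenchymal stem cells; agents alone or combined, from near clinical Cmax (or 10 microM if unknown) down in half-log steps, 0.25% DMSO final.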

[1] = curve of first compound, second compound 30 pM
[2] = curve of first compound, second compound 94.9 pM
[3] = curve of first compound, second compound 0.0003 µM
[4] = curve of first compound, second compound 0.000949 µM
[5] = curve of first compound, second compound 0.003 µM
[6] = second compound 30 pM, first compound 0.0316 µM
[7] = second compound 30 pM, first compound 0.1 µM
[8] = second compound 30 pM, first compound 0.316 µM
[9] = second compound 30 pM, first compound 1 µM
[10] = second compound 30 pM, first compound 3.16 µM
[11] = second compound 30 pM, first compound 10 µM
[12] = second compound 94.9 pM, first compound 0.0316 µM
[13] = second compound 94.9 pM, first compound 0.1 µM
[14] = second compound 94.9 pM, first compound 0.316 µM
[15] = second compound 94.9 pM, first compound 1 µM
[16] = second compound 94.9 pM, first compound 3.16 µM
[17] = second compound 94.9 pM, first compound 10 µM
[18] = second compound 0.0003 µM, first compound 0.0316 µM
[19] = second compound 0.0003 µM, first compound 0.1 µM
[20] = second compound 0.0003 µM, first compound 0.316 µM
[21] = second compound 0.0003 µM, first compound 1 µM
[22] = second compound 0.0003 µM, first compound 3.16 µM
[23] = second compound 0.0003 µM, first compound 10 µM
[24] = second compound 0.000949 µM, first compound 0.0316 µM
[25] = second compound 0.000949 µM, first compound 0.1 µM
[26] = second compound 0.000949 µM, first compound 0.316 µM
[27] = second compound 0.000949 µM, first compound 1 µM
[28] = second compound 0.000949 µM, first compound 3.16 µM
[29] = second compound 0.000949 µM, first compound 10 µM
[30] = second compound 0.003 µM, first compound 0.0316 µM
[31] = second compound 0.003 µM, first compound 0.1 µM
[32] = second compound 0.003 µM, first compound 0.316 µM
[33] = second compound 0.003 µM, first compound 1 µM
[34] = second compound 0.003 µM, first compound 3.16 µM
[35] = second compound 0.003 µM, first compound 10 µM

Compound: CC1COCCN1c1cc(-c2ccnn2C)c2ccnc(-c3ccn[nH]3)c2n1 (configuration not stated) + COc1cc2c(cc1O)CCNC21CSC2c3c(OC(C)=O)c(C)c4c(c3C(COC1=O)N1C(O)C3Cc5cc(C)c(OC)c(O)c5C(C21)N3C)OCO4
- IC50 [1]: < 31.6 nM
- IC50 [2]: < 31.6 nM
- IC50 [3]: < 31.6 nM
- IC50 [4]: < 31.6 nM
- IC50 [5]: < 31.6 nM
- viability, T/C [6]: 0.76%
- viability, T/C [7]: 0.64%
- viability, T/C [8]: 0.52%
- viability, T/C [9]: 0.4%
- viability, T/C [10]: 0.43%
- viability, T/C [11]: 0.49%
- viability, T/C [12]: 0.75%
- viability, T/C [13]: 0.74%
- viability, T/C [14]: 0.62%
- viability, T/C [15]: 0.38%
- viability, T/C [16]: 0.35%
- viability, T/C [17]: 0.42%
- viability, T/C [18]: 0.75%
- viability, T/C [19]: 0.89%
- viability, T/C [20]: 0.57%
- viability, T/C [21]: 0.78%
- viability, T/C [22]: 0.3%
- viability, T/C [23]: 0.36%
- viability, T/C [24]: 0.61%
- viability, T/C [25]: 0.63%
- viability, T/C [26]: 0.48%
- viability, T/C [27]: 0.81%
- viability, T/C [28]: 0.36%
- viability, T/C [29]: 0.71%
- viability, T/C [30]: 0.1%
- viability, T/C [31]: 0.1%
- viability, T/C [32]: 0.31%
- viability, T/C [33]: 0.1%
- viability, T/C [34]: 0.46%
- viability, T/C [35]: 0.54%

Compound: Cn1ncnc1[C@H]1c2n[nH]c(=O)c3cc(F)cc(c23)N[C@@H]1c1ccc(F)cc1
- viability, T/C (compound 0.00949 µM): 1.22% and 3.94% and 1.23%
- viability, T/C (compound 0.03 µM): 1.16% and 3.82% and 0.82%
- viability, T/C (compound 0.0949 µM): 1.19% and 4.14% and 0.91%
- viability, T/C (compound 0.3 µM): 1.37% and 3.79% and 0.88%
- viability, T/C (compound 0.949 µM): 1.35% and 4.02% and 0.84%
- viability, T/C (compound 3 µM): 1.37% and 3.65% and 1.07%
- IC50 (curve of compound): < 9.49 nM

Compound: CC(C)n1c(=O)n(C)c2cnc3cc(F)c(-c4ccc(OCCCN5CCCCC5)nc4)cc3c21 + COc1cc2c(cc1O)CCNC21CSC2c3c(OC(C)=O)c(C)c4c(c3C(COC1=O)N1C(O)C3Cc5cc(C)c(OC)c(O)c5C(C21)N3C)OCO4
- IC50 [1]: < 31.6 nM
- IC50 [2]: < 31.6 nM
- IC50 [3]: < 31.6 nM
- IC50 [4]: < 31.6 nM
- IC50 [5]: < 31.6 nM
- viability, T/C [6]: 27%
- viability, T/C [7]: 15.3%
- viability, T/C [8]: 15.5%
- viability, T/C [9]: 12.7%
- viability, T/C [10]: 9.25%
- viability, T/C [11]: 0.77%
- viability, T/C [12]: 0.99%
- viability, T/C [13]: 0.88%
- viability, T/C [14]: 1.06%
- viability, T/C [15]: 0.96%
- viability, T/C [16]: 0.8%
- viability, T/C [17]: 0.42%
- viability, T/C [18]: 0.68%
- viability, T/C [19]: 0.74%
- viability, T/C [20]: 0.77%
- viability, T/C [21]: 1.03%
- viability, T/C [22]: 0.82%
- viability, T/C [23]: 0.31%
- viability, T/C [24]: 0.69%
- viability, T/C [25]: 0.69%
- viability, T/C [26]: 0.71%
- viability, T/C [27]: 0.72%
- viability, T/C [28]: 0.7%
- viability, T/C [29]: 0.5%
- viability, T/C [30]: 0.12%
- viability, T/C [31]: 0.17%
- viability, T/C [32]: 0.11%
- viability, T/C [33]: 0.1%
- viability, T/C [34]: 0.12%
- viability, T/C [35]: 0.16%

Compound: [2H]c1nc(C)nc([2H])c1-c1cc(NC[C@@H](C)c2cccc3c(C(=O)NC)ccnc23)ncn1 + CC[C@@]1(O)C(=O)OCc2c1cc1n(c2=O)Cc2cc3c(CN(C)C)c(O)ccc3nc2-1
- IC50 [5]: 8430 nM
- IC50 (curve of first compound, second compound 0.00949 µM): < 31.6 nM
- IC50 (curve of first compound, second compound 0.03 µM): < 31.6 nM
- IC50 (curve of first compound, second compound 0.0949 µM): < 31.6 nM
- IC50 (curve of first compound, second compound 0.3 µM): < 31.6 nM
- viability, T/C [30]: 65.3%
- viability, T/C [31]: 63.1%
- viability, T/C [32]: 49.7%
- viability, T/C [33]: 65.6%
- viability, T/C [34]: 51%
- viability, T/C [35]: 48.1%
- viability, T/C (second compound 0.00949 µM, first compound 0.0316 µM): 4.11%
- viability, T/C (second compound 0.00949 µM, first compound 0.1 µM): 1.98%
- viability, T/C (second compound 0.00949 µM, first compound 0.316 µM): 1.95%
- viability, T/C (second compound 0.00949 µM, first compound 1 µM): 1.63%
- viability, T/C (second compound 0.00949 µM, first compound 3.16 µM): 2.52%
- viability, T/C (second compound 0.00949 µM, first compound 10 µM): 1.58%
- viability, T/C (second compound 0.03 µM, first compound 0.0316 µM): 0.8%
- viability, T/C (second compound 0.03 µM, first compound 0.1 µM): 1.15%
- viability, T/C (second compound 0.03 µM, first compound 0.316 µM): 1.33%
- viability, T/C (second compound 0.03 µM, first compound 1 µM): 0.93%
- viability, T/C (second compound 0.03 µM, first compound 3.16 µM): 1.82%
- viability, T/C (second compound 0.03 µM, first compound 10 µM): 1.19%
- viability, T/C (second compound 0.0949 µM, first compound 0.0316 µM): 1.46%
- viability, T/C (second compound 0.0949 µM, first compound 0.1 µM): 0.76%
- viability, T/C (second compound 0.0949 µM, first compound 0.316 µM): 1.4%
- viability, T/C (second compound 0.0949 µM, first compound 1 µM): 0.83%
- viability, T/C (second compound 0.0949 µM, first compound 3.16 µM): 1.25%
- viability, T/C (second compound 0.0949 µM, first compound 10 µM): 1.69%
- viability, T/C (second compound 0.3 µM, first compound 0.0316 µM): 1.19%
- viability, T/C (second compound 0.3 µM, first compound 0.1 µM): 1.37%
- viability, T/C (second compound 0.3 µM, first compound 0.316 µM): 0.88%
- viability, T/C (second compound 0.3 µM, first compound 1 µM): 1.14%
- viability, T/C (second compound 0.3 µM, first compound 3.16 µM): 0.92%
- viability, T/C (second compound 0.3 µM, first compound 10 µM): 0.98%

Compound: COc1ccc([C@@H](O)c2cc(-c3ncnc4cc(N5CCOCC5)ccc34)c(F)cc2Cl)nn1 + COc1cc2c(cc1O)CCNC21CSC2c3c(OC(C)=O)c(C)c4c(c3C(COC1=O)N1C(O)C3Cc5cc(C)c(OC)c(O)c5C(C21)N3C)OCO4
- IC50 [1]: 583 nM
- IC50 [2]: < 31.6 nM
- IC50 [3]: < 31.6 nM
- IC50 [4]: < 31.6 nM
- IC50 [5]: < 31.6 nM
- viability, T/C [6]: 104%
- viability, T/C [7]: 91.7%
- viability, T/C [8]: 71.9%
- viability, T/C [9]: 33%
- viability, T/C [10]: 1.14%
- viability, T/C [11]: 0.29%
- viability, T/C [12]: 20.6%
- viability, T/C [13]: 12.6%
- viability, T/C [14]: 4.86%
- viability, T/C [15]: 0.5%
- viability, T/C [16]: 0.35%
- viability, T/C [17]: 0.2%
- viability, T/C [18]: 0.7%
- viability, T/C [19]: 0.77%
- viability, T/C [20]: 0.73%
- viability, T/C [21]: 0.58%
- viability, T/C [22]: 0.36%
- viability, T/C [23]: 0.11%
- viability, T/C [24]: 0.63%
- viability, T/C [25]: 0.64%
- viability, T/C [26]: 0.51%
- viability, T/C [27]: 0.16%
- viability, T/C [28]: 0.02%
- viability, T/C [29]: 0.11%
- viability, T/C [30]: 0.1%
- viability, T/C [31]: 0.11%
- viability, T/C [32]: 0.1%
- viability, T/C [33]: 0.1%
- viability, T/C [34]: 0.1%
- viability, T/C [35]: 0.16%

Reference: PubChem BioAssay AID1845209 (Molecular Pharmacology Branch, DTP, NCI, 2023)
